# Test results taken from ChEMBL document CHEMBL3507680, “University of Dundee, Gates Library screen for HepG2 cell viability”.
# Assay: Human HepG2 cell viability assay in 384 well format
# Assay type: toxicity, cell-based
# Design: dose 125 nL, time 70.5 hour; concentration not given beside the values
# Conditions: HepG2 cells, read-out: Inhibition
row,SMILES,cytotoxicity at 70.5 h [%]
1,CN(Cc1cccc(Cl)c1)Cc1nnsc1Cl,-5.2
2,Cn1cc(CN2CCCC3(CCCN3S(C)(=O)=O)C2)cn1 (stereo not drawn),-16.8
3,CCOc1c(F)cccc1C(=O)N(C)CCc1ccccn1,36.5
4,COCC(=O)NC(C)c1cccc(Br)c1 (stereo not drawn),-2.66
5,Cc1cc(NC(=O)NCC(O)c2ccc(F)c(F)c2)n(C)n1 (stereo not drawn),13.9
6,COCCN1CCC(NC(=O)C(C)C)CC1,-1.39
7,COc1cc(CN2CCN(CC3CC3)[C@@H]3CS(=O)(=O)C[C@@H]32)cc(OC)c1,3.14
8,CC(C)N(C)Cc1cncc2c1CCN(C1CCOCC1)C2,-6.55
9,CCCn1ncc(C(=O)N(C)Cc2n[nH]c3c2CCC3)c1C,-11.7
10,COCCOc1cccc(C(=O)N2CCCC(n3ccnc3)C2)c1 (stereo not drawn),-4.62
11,OCC1CCCCN1c1ccc(-c2nc(-c3ccccc3F)no2)cn1 (stereo not drawn),-24.7
12,CCC(C)c1cc(C(=O)N(CC(=O)NC)c2cccc(F)c2)on1 (stereo not drawn),20.8
13,CN(CCNC(=O)Nc1cnn(C)c1)Cc1ccc(F)cc1,-20.9
14,CC(=O)N1CCC2(CCN(Cc3cccc(F)c3)CC2)CC1,-2.12
15,CN(Cc1ccc(F)cc1)CC1(O)CCN(C(=O)c2ccsc2)C1 (stereo not drawn),9.08
16,Cc1ccc(CN2CC[C@@H](NS(C)(=O)=O)[C@@H]2Cc2ccncc2)o1,-10.7
17,COC(=O)[C@@H]1Cc2ncn(C(C)C)c2CN1S(=O)(=O)Cc1ccccc1,-6.37
18,COCCc1noc(CN2CCCCC2Cn2cc(C)cn2)n1 (stereo not drawn),-11.7
19,CCN1CCC(CC(=O)NCCc2nc(N)cc(O)n2)CC1,-2.8
20,O=c1c(NCCc2ccc(O)cc2)c(NCc2ccccn2)c1=O,6.43
21,Cc1cccc(N2CCN(CCNC(=O)C(C)n3cncn3)CC2)c1 (stereo not drawn),-6.98
22,CCC(CC)c1cc(C(=O)N2CCN(C(C#N)C(C)C)CC2)on1 (stereo not drawn),-6.08
23,CN(CCOc1ccc(C#N)cc1)CC1CC1,3.53

row,SMILES,cytotoxicity at 70.5 h [%]
1,Cn1cc(CN2CC3(CCN(C(=O)c4cscn4)C3)C2)cn1,-7.98
2,O=C(Nc1cc(C2CCOCC2)[nH]n1)c1cc[nH]n1,-4.17
3,CC(C)Nc1nc2c(cc1C(=O)NCC1CC1)CCN(CC1CC1)CC2,25.7
4,CC(c1ccc(Cl)cc1)N1CCN(CCS(C)(=O)=O)CC1 (stereo not drawn),-6.43
5,CC(Cn1cccn1)NC(=O)NCc1ccc(S(N)(=O)=O)cc1 (stereo not drawn),-7.93
6,Cc1c[nH]c(CN2CC[C@@]3(O)CCN(C(=O)C4CCC4)C[C@H]3C2)n1,-1.74
7,CCN1CCCN(S(=O)(=O)c2cc3ccccc3o2)CC1,-4.88
8,CCc1ccc(C(=O)N2CCCCC2Cn2cccn2)o1 (stereo not drawn),6.61
9,COc1ccc(OC)c(S(=O)(=O)NCC2(OC)CCSC2)c1 (stereo not drawn),-7.48
10,Cc1cnc(-c2nc(C3CCN(C(=O)Cc4ccsc4)CC3)no2)cn1,2.59
11,Cn1c(N2CCOCC2)nc2cc(C(=O)N3CCC(O)(CO)C3)ccc21 (stereo not drawn),-2.61
12,CCN(Cc1cc(F)c(OC)c(Cl)c1)Cc1nc(COC)no1,12.1
13,CC(=O)N1CC(c2n[nH]c3ncccc23)C1,28.9
14,CCOC(=O)C1CCCN(c2nccc(-n3nc(C)cc3C)n2)C1 (stereo not drawn),-9.69
15,CN(Cc1cccc(F)c1)C(=O)CS(=O)(=O)Cc1c(Cl)cccc1Cl,5.76
16,NCC1(c2cccc(C(F)(F)F)c2)CCOCC1,-3.44
17,COC(=O)CC1C(=O)NCCN1c1nc2c(s1)c(C)nn2C (stereo not drawn),5.02
18,O=C(Nc1ccnc(OC2CCOC2)c1)c1ccccc1Cl (stereo not drawn),-4.06
19,Cc1nnc(N2CCOC(Cn3cccn3)C2)c(C#N)c1C (stereo not drawn),-8.57
20,CCc1nc(CC(=O)NCC(Cc2ccc(F)cc2)C(N)=O)cs1 (stereo not drawn),29.6
21,COCc1cc(NCCCSc2nnc(C)s2)ncn1,-6.65
22,COC(=O)CC1CCN(C(=O)c2ccc(-n3nnnc3C)cc2)CC1,-11.6
23,O=C(CCC(=O)N1CCC(Oc2ncccc2Br)CC1)c1ccccc1,-9.39

row,SMILES,cytotoxicity at 70.5 h [%]
1,CCC1CCC(N(Cc2cc(=O)n(C)c(=O)n2C)C2CC2)CC1 (stereo not drawn),-5.27
2,Cc1ccccc1Cc1nc(CSc2nnc(N)n2C2CC2)no1,-12.1
3,CCOc1ccc(CC(CNC(=O)c2ccoc2C)C(N)=O)cc1 (stereo not drawn),-10.1
4,CCn1ncc(CNc2[nH]cnc3nncc2-3)c1C,-13.8
5,O=C(c1ccco1)N1CCCn2cnc(COCC3CC3)c2C1,-7.39
6,CC(C)N1CCC(CC(=O)N(C)C(C)c2cncs2)CC1 (stereo not drawn),-15.3
7,Cc1nc[nH]c1CN(Cc1ccccc1F)C1CC(C)(C)NC(C)(C)C1,-2.5
8,Cc1ccc(Cl)c(C(C(=O)O)N(C)Cc2cnn(C)c2)c1 (stereo not drawn),5.66
9,O=C(N1CCC(O)(C(F)(F)F)C1)C1(c2cccc(Cl)c2)CC1 (stereo not drawn),-9.29
10,c1cnnc(N2CCCC2CNCc2cscn2)c1 (stereo not drawn),-15
11,COCC(=O)N[C@@H]1CN(Cc2ccc3c(c2)OCCO3)C[C@H]1O,9.74
12,CSCCC1c2nc[nH]c2CCN1Cc1cc(Cl)ccc1O (stereo not drawn),-5.87
13,O=C(CCC1CCCC1)N1CCC(O)(C(F)(F)F)C1 (stereo not drawn),-0.869
14,CC(O)(CNC(=O)c1c(F)cccc1Cl)C1CC1 (stereo not drawn),-14.4
15,O=C(Cc1ccsc1)N1CCC(O)(CN2CCc3ccccc3C2)C1 (stereo not drawn),-5.49
16,Cc1cccc(C(=O)N2CCCN(CCCSCC#N)CC2)c1,-10.7
17,Cc1nc(C2CCCN(C(=O)C(C)(C)n3cc(Cl)cn3)C2)no1 (stereo not drawn),-13.5
18,N#Cc1cccnc1N1CCCC(CO)(Cc2ccccc2F)C1 (stereo not drawn),-4.89
19,CS(=O)(=O)N1CCc2ccc(C(=O)N3CCn4ncnc4C3)cc21,-1.85
20,CC(C)c1nnc2n1CCN(Cc1csc(CC(=O)N(C)C)n1)C2,49.9
21,O=S(=O)(Cc1ccccc1CN1CC[C@H](CO)[C@H](O)C1)c1ccccc1,-7.73
22,CN1CC(=O)N(c2ccsc2)CC12CCN(C(=O)Nc1ccccc1)C2 (stereo not drawn),-4.43
23,O=C1[C@@H]2CN(c3ncnc4sccc34)C[C@]2(C(=O)O)CN1CC1CC1,-11.3

row,SMILES,cytotoxicity at 70.5 h [%]
1,Cc1noc(-c2ccc(N(C)Cc3ccncc3C)nc2)n1,-5.41
2,Cc1cc(C2CCCN(Cc3ncc(C)o3)C2)n[nH]1 (stereo not drawn),-10.2
3,COc1ccc(CN2CCc3ncnc(C4CCOC4)c3CC2)cc1 (stereo not drawn),13.2
4,COc1ccc(C(C)N(C)Cc2c(C3CC3)[nH]c3ncccc23)cc1 (stereo not drawn),-3.9
5,CC(C1CC1)n1nccc1NC(=O)CN(C)C(=O)OC(C)(C)C (stereo not drawn),27.9
6,O=C(O)[C@H]1OCC(=O)N(Cc2cccc(Cl)c2)[C@@H]1c1ccccc1,-6.12
7,CN(C)C(=O)c1n[nH]c2c1CN(Cc1ccccn1)CC2,-3.26
8,Cn1c(CN2CCOC(c3nc(C(C)(C)C)n[nH]3)C2)nnc1C1CC1 (stereo not drawn),26.5
9,CN(C)C(=O)N1CCC2(CCCN(Cc3cnn(C)c3)C2)C1 (stereo not drawn),6.69
10,O=C(c1ccc(CN2CC(n3cccn3)C2)cc1)N1CCCC1,-0.354
11,CSCCCN1CCN(c2ccc(Cl)cn2)CC1,-5.7
12,Cc1cc(C(=O)NCC(Cc2cccc(F)c2)N2CCCCC2=O)no1 (stereo not drawn),-2.65
13,CCS(=O)(=O)N1CCc2nc(N3CCOCC3)nc(N(C)C)c2CC1,-7.6
14,COCC(=O)NC[C@H]1CC[C@H](c2ccnc3ncnn32)CC1,-8.99
15,COc1ncc(C2CC(=O)NCc3nc4ccccn4c32)cn1 (stereo not drawn),-13.5
16,Cc1nn(-c2ccccc2)c2c1C(c1ccc(C(=O)O)cc1)CC(=O)N2 (stereo not drawn),-3.05
17,Cc1cc(C)nc(Nc2cc(C)nc(C3CCN(C(=O)CO)C3)n2)n1 (stereo not drawn),-7.3
18,Cc1ccc(CN(C)C(=O)CN2CC(n3cccn3)C2)o1,23.5
19,O=C(C1CCCC1)N1C[C@@H]2CCNC[C@@H]21,-9.43
20,O=C1CC2(CCCCN2C(=O)c2ccoc2)CN1Cc1ccccc1 (stereo not drawn),3.41
21,N#Cc1cccnc1OC1CCN(S(=O)(=O)c2ccc(F)c(Cl)c2)CC1,-14.2
22,CN(C)CCNC(=O)c1ccc2ccc(N(C)CC3CC3)n2c1,-0.944
23,CSc1c[nH]nc1NS(=O)(=O)c1cc(F)ccc1C,-3.64

row,SMILES,cytotoxicity at 70.5 h [%]
1,O=C(NCCNC(=O)C1CCN(CC(F)(F)F)CC1)c1ccoc1,-4.81
2,CCc1n[nH]c(C(=O)N2CCCC3(CN(C)C(=O)O3)C2)c1C (stereo not drawn),-13.7
3,CCN1CC2(CC1=O)CN(C(=O)c1ccsc1)CCN(C(=O)N(C)C)C2 (stereo not drawn),3.77
4,CC(C(=O)NCc1ccc(N2CCCC2)nc1)S(C)(=O)=O (stereo not drawn),15.7
5,COc1ccc(-c2ccnc3nc(N4CCCCC4)[nH]c(=O)c23)cc1,-9.32
6,Cc1ccccc1-n1c(C)cc(C(=O)N2CCn3c(C)nnc3C2)c1C,-1.44
7,CCn1cc(CN2CCN(CC(O)c3ccc(C)cc3C)CC2)cn1 (stereo not drawn),-4.8
8,CCc1c(C)nc2cc(C3CCN(Cc4ccccc4F)C3)nn2c1O (stereo not drawn),-2.56
9,CN(C)C(=O)C1CN(Cc2ccc(C#N)cc2F)c2ccccc2O1 (stereo not drawn),-0.947
10,Cc1n[nH]c(C)c1CC(=O)N1CCC(O)(CN2CCOCC2)C1 (stereo not drawn),-12.6
11,CN(C)C(C(=O)N1CC(c2ccccn2)C1)c1ccc2c(c1)OCO2 (stereo not drawn),-3.16
12,Cn1ccc2c(C(=O)NC3CN4CCC3CC4)cccc21 (stereo not drawn),-32.2
13,CC(C)OCCCNC(=O)CN1CCN(c2nccs2)CC1,-4.41
14,O=C(Nc1cnccn1)[C@H]1C[C@H]2OCC[C@H]2N(c2ncc(F)cn2)C1,-11.1
15,COCCCC(=O)Nc1[nH]nc(-c2ccncc2)c1C,-3.19
16,CCOC(=O)C1(Cc2ccc(Cl)cc2)CCN(Cc2ncc[nH]2)CC1,-10.4
17,O=C(NCC1Cn2nnc(-c3ccsc3)c2CO1)c1ccc[nH]1 (stereo not drawn),1.74
18,O=C(NCc1ccccc1)NCc1nc(-c2ccncc2)n[nH]1,-3.14
19,CCc1nc(CN2CCCN(c3nc4ccccc4o3)CC2)no1,6.35
20,CC(C)c1nnsc1CN1CCc2[nH]nc(-c3ccc(F)c(F)c3)c2C1,-11.6
21,CN1CCN(C2CCN(CCOc3ccccc3F)CC2)C1=O,-11.6
